Assay [1] addresses T1, cloned human hERG channel (Homo sapiens, UniProt Q12809).
T1 construct: expressed in transfected cells; host or cells: HEK cells
Put plainly: hERG current block in HEK cells, whole-cell patch clamp. It counts as cell-based. The conditions noted are these: HEK cells expressing cloned human hERG channel, 37±1° C., peak current at −40 mV; read-out: hERG (μM), IC50 for inhibition of hERG. The method, then: Electrophysiological measurements of hERG current were made in vitro to assess the hERG block produced by the phenyloin conjugates. hERG currents were measured in HEK cells expressing the cloned human hERG channel using the whole-cell variant of the patch clamp method. Experiments were performed at 37±1° C. hERG current was elicited by a step pulse to +10 mV for 500 ms from a holding potential of −75 mV, followed by a pulse to −40 mV for 500 ms. Peak current was measured from the pulse to −40 mV. Six concentrations of each test compound were added to the cell in a cumulative manner starting with the lowest test concentration. Each cell served as its own control and data are presented as % reduction of current amplitude achieved in the presence of drug.

For assay [2], the target named is sodium channels in isolated cardiac cells (human atrial myocytes) (Homo sapiens, UniProt Q14524). The experiment in a line: Sodium current (INa) block in isolated human atrial myocytes, whole-cell patch clamp. The conditions noted are these: pacing rates 0.1, 1 and 3 Hz, FIG. 2. In kind it is cell-based. The method, then: Phenyloin and compounds prepared in accordance with Example 1 were evaluated in vitro to determine their ability to block sodium channels in isolated cardiac cells (human atrial myocytes) using the whole-cell patch clamp method
Human myocytes were obtained from specimens of human right atrial appendages obtained during surgery from hearts of patients undergoing cardiopulmonary bypass surgery. The procedure produced rod-shaped, ion tolerant cells which were used within 24 hours after isolation. See Crumb et al. (1995) Am J Physiol 268:H1335-H1342. […]
After rupture of the cell membrane (entering whole-cell mode), current kinetics and amplitudes were allowed to stabilize as the cell was dialyzed with internal solution and paced at 3 Hz (3-5 minutes). Sodium current (INa) was measured using a voltage pulse to −20 mV (40 ms pulse duration) from a holding potential of −80 mV. Peak inward current was measured for INa. […]
Currents and voltages were recorded with patch-clamp amplifiers (Axopatch 1-B, Axon Instruments). […] Data was presented as % reduction of current amplitude, measured as current reduction after a steady-state effect had been reached in the presence of test article relative to current amplitude before introduction of test article (control). […]

Consider 4 compounds from patent publication US9540330B2, “Oligomer-containing hydantoin compounds” (Nektar Therapeutics, priority 2010, dated 2017).

Structures are written as SMILES. Bounds are passed on as bounds.

T1 sequence (Q12809 whole entry): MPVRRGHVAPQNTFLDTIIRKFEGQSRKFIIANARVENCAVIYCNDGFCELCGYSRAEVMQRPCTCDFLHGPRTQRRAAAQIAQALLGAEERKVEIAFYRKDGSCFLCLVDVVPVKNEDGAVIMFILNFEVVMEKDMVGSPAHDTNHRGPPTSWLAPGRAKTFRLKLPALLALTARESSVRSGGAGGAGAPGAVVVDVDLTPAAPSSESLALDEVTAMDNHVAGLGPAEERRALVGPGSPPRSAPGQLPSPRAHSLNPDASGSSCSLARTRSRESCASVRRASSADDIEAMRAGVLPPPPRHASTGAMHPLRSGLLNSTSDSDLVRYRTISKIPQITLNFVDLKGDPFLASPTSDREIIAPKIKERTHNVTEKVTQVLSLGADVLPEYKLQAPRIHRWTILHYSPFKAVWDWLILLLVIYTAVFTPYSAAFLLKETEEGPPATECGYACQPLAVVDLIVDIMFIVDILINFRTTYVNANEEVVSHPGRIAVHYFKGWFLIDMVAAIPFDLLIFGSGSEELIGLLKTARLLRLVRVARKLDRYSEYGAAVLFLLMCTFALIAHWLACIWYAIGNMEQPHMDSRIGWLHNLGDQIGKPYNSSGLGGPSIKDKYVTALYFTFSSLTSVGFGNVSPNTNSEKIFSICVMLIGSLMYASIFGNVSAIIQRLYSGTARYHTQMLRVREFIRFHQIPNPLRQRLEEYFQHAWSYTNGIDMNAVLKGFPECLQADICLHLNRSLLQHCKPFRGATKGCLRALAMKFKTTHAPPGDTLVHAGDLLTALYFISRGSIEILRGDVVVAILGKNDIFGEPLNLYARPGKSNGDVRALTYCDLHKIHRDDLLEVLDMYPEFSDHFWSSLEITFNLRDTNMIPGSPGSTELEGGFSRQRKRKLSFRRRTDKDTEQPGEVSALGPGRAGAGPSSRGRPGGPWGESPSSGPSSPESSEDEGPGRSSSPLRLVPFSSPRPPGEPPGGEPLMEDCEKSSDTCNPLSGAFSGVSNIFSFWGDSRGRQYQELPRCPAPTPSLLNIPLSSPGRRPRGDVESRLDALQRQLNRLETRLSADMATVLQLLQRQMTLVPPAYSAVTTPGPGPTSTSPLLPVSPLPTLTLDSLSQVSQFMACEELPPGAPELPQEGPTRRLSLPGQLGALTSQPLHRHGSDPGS
Sequence of sodium channels in isolated cardiac cells (human atrial myocytes) (Q14524 whole entry): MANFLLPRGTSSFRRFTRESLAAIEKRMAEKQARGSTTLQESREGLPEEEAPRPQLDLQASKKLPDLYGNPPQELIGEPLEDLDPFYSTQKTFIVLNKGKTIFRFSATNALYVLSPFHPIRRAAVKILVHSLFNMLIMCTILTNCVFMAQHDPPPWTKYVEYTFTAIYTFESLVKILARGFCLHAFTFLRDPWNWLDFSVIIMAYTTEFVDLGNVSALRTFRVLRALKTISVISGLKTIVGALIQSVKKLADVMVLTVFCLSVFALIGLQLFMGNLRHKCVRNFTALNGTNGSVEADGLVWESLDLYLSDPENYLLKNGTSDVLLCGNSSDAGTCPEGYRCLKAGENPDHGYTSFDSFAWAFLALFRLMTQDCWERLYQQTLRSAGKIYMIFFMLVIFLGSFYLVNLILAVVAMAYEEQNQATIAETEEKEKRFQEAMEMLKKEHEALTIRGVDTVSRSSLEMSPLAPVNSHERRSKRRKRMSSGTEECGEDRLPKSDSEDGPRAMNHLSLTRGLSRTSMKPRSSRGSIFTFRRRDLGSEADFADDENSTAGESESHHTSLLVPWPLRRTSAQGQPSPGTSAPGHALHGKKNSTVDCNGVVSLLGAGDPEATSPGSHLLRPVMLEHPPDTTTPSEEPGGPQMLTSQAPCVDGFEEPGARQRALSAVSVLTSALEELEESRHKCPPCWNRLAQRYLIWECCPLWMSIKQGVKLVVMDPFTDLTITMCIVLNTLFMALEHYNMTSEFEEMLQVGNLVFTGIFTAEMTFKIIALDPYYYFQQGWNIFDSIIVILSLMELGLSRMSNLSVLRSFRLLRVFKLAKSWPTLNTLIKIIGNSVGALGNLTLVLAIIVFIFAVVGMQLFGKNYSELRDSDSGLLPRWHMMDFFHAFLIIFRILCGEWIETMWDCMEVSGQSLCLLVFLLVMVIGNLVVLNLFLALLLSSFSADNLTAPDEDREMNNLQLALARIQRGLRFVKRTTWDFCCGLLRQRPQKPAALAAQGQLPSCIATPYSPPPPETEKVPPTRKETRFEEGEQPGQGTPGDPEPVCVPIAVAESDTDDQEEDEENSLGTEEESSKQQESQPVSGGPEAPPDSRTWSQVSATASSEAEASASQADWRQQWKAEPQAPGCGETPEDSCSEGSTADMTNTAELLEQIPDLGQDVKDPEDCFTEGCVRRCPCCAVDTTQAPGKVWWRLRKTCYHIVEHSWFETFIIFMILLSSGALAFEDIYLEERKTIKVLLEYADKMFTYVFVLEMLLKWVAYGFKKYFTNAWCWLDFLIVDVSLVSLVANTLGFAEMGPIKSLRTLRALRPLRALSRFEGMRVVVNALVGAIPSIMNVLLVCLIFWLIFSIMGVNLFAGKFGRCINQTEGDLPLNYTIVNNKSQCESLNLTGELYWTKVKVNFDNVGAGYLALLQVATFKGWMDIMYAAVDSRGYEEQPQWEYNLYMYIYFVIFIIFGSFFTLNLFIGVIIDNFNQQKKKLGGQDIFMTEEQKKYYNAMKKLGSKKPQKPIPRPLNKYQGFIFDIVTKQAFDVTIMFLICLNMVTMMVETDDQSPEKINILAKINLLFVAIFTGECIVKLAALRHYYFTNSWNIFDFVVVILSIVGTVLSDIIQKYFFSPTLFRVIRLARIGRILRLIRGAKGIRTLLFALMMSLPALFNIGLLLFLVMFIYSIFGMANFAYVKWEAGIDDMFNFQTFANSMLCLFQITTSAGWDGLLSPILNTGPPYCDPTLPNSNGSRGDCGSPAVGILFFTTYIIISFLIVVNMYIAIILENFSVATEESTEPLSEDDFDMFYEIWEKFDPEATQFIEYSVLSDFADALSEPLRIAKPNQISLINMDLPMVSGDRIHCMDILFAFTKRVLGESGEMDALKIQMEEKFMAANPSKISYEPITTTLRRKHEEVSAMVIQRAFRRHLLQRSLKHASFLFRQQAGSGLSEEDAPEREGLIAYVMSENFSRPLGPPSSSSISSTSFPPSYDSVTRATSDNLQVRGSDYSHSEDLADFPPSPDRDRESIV

Regarding `COCCOCCOCCOCCOCCN1C(=O)NC(=O)C1(c1ccccc1)c1ccccc1` [mPEG5-N-Phenytoin], the IC50 in assay [1] is over 100 µM.

Take `COCCOCCOCCOCCN1C(=O)NC(=O)C1(c1ccccc1)c1ccccc1` [mPEG4-N-Phenytoin]: the IC50 in assay [1] came to 88.9 µM.

On to `COCCOCCOCCOCCOCCOCCOCCN1C(=O)NC(=O)C1(c1ccccc1)c1ccccc1` [mPEG7-N-Phenytoin], for which the IC50 in assay [1] was over 100 µM.

In the case of `O=C1NC(=O)C(c2ccccc2)(c2ccccc2)N1` [Phenytoin, 5,5-diphenylhydantoin], the “frequency-dependence of sodium channel block (in words)” value in assay [2] is reported as “frequency-dependent block of sodium channels”.
